Data as given in patent US8648086B2, “5,6-bicyclic heteroaryl-containing urea compounds as kinase inhibitors” (Ascepion Pharmaceuticals, Inc., priority 2009, dated 2014).
Counter-ions that a name gives are not always drawn.

What was measured:
VEGFR2 = target: T1, VEGFR2 (Homo sapiens, UniProt P35968); test: VEGFR2 cell-based assay (phospho-VEGFR2 ELISA, transfected CHO cells); settings: compound at 100 nM, read-out: % VEGFR2 kinase activity remains
T1 construct: expressed in transfected cells; host or cells: CHO cells, pcDNA3.1 plasmid
T1 sequence (P35968 20-1356, species assumed): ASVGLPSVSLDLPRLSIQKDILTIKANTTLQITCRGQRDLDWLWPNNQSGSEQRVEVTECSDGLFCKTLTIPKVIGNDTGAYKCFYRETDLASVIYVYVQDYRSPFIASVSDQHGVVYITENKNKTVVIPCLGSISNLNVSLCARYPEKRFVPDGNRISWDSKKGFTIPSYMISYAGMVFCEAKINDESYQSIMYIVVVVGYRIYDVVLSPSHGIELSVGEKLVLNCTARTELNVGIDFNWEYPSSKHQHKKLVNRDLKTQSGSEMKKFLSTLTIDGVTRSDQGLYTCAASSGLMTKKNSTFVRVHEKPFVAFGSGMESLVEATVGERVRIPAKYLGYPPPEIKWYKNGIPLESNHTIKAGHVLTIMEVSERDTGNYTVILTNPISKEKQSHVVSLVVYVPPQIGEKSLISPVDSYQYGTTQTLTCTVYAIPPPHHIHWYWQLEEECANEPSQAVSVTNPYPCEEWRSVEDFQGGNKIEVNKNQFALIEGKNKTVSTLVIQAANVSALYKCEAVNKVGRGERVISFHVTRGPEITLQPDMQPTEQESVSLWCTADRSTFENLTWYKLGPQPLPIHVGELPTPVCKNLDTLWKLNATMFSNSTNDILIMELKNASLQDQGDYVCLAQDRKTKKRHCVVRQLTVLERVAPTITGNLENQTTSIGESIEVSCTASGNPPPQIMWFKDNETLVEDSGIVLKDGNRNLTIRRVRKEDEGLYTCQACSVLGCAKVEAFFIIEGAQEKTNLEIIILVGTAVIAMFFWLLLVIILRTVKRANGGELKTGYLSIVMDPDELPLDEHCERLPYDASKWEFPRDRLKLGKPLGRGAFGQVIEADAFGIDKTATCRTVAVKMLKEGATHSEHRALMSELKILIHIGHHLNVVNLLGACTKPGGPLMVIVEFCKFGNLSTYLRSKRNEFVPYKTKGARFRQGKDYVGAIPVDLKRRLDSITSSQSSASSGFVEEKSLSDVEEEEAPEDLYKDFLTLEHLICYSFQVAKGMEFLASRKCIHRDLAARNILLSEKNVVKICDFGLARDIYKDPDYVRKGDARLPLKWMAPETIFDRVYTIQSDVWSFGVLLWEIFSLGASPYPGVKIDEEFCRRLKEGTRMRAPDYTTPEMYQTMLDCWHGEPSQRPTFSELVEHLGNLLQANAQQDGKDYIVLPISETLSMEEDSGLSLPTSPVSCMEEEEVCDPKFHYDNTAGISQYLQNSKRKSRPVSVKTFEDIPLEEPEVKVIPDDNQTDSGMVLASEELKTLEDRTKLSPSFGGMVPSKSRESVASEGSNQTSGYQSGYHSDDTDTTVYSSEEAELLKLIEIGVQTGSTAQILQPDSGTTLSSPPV
Method in brief: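 Serum-starved CHO cells transfected with full-length VEGFR2 treated 2 h with compound (0.5–500 nM), then stimulated with 20% FBS. Lysates analyzed by ELISA for phospho- and total VEGFR2 using streptavidin-HRP chemiluminescence.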

c-Met = target: T2, c-Met (Homo sapiens, UniProt P08581); test: c-Met cell-based assay (phospho-c-Met ELISA, A549 cells); settings: compound at 100 nM
T2 construct: endogenous in cells; host or cells: A549 cells
T2 sequence (P08581 25-1390): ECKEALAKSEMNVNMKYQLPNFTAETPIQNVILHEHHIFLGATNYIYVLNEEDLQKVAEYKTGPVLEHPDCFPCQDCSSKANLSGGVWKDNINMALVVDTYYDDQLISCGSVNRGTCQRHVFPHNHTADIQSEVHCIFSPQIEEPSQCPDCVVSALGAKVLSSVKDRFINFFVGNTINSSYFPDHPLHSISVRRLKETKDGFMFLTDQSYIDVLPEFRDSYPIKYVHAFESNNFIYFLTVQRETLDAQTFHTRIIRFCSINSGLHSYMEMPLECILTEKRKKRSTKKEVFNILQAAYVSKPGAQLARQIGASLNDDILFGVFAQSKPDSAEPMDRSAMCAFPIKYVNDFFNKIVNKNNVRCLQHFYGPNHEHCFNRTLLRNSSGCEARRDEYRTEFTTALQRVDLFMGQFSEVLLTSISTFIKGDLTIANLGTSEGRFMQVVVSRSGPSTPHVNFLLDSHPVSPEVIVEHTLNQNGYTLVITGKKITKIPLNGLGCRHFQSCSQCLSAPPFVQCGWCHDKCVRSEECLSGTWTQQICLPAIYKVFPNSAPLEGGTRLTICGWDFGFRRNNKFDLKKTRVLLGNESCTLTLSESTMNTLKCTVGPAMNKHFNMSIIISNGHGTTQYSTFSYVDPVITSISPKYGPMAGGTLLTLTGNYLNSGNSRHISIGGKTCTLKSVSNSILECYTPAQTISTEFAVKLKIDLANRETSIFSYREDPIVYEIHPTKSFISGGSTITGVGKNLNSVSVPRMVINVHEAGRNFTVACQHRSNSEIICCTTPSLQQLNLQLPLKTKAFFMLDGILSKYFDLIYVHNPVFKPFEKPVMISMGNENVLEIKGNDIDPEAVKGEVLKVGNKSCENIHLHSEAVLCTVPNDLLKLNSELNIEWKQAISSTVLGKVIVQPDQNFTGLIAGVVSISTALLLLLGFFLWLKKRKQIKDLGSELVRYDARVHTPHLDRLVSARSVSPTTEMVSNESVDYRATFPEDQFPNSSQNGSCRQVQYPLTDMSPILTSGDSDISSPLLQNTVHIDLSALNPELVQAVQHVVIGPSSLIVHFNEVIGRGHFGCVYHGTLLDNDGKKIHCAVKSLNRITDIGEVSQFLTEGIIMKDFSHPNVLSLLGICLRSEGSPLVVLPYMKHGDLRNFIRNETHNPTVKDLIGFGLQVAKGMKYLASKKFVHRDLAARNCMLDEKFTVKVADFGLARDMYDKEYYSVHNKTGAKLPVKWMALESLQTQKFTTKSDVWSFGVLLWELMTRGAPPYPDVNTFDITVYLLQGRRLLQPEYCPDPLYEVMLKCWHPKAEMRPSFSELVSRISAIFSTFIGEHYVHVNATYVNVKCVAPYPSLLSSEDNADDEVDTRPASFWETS
Method in brief: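 Serum-starved A549 cells (NSCLC) pretreated 2 h with compound (0.5 nM to 500 nM), then stimulated 20 min with 20% FBS. Lysates analysed by ELISA for phospho-c-Met and total c-Met with streptavidin-HRP chemiluminescence.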

[1] = test system: MDA-MB-231 human breast cancer cells; test: In vivo anti-tumor efficacy, MDA-MB-231 xenograft; settings: Breast cancer MDA-MB-231, nu/nu Balb/c mice, 100 mg/kg oral once per day, n = 2 × 3
Experimental: (§1) Female (nu/nu) Balb/c athymic mice at 4-6 weeks of age were injected subcutaneously (s.c.) with MDA-MB-231 human breast cancer cells, A549 human non-small cell lung cancer cells, U87-MG human glioblastoma cells, PC-3 human prostate cancer cells, HT-29 human colon cancer, BEL-7404 human hepatocellular carcinoma, or MKN-45 human gastric cancer cells (ATCC, 5×10^6 cells suspended in 100 μl DMEM medium). Treatment was initiated after the tumor mass grown from s.c. implanted tumor cells reached a median volume of 200-400 mm^3. Mice were randomized into groups with three in each group for small-sample efficacy tests such that the median tumor volume is nearly equal among all groups. For large-sample efficacy tests, mice were randomized into groups with thirteen or fourteen in each group. Each group was treated either with compounds (dissolved in 2:1 mixture of PEG400 and 0.01N HCl (v/v)) or without compounds (vehicle only, 2:1 mixture of PEG400 and 0.01N HCl (v/v)) once per day at dose 12.5, 25, 50 or 100 mg/kg by oral gavage. Tumor volumes were assessed at least twice weekly by caliper measurement from the start of treatment. Tumor volume was calculated using the formula ½×L×W^2 (L: length of tumor's long axis, W: length of tumor's short axis). Treatment was applied for at least two weeks or until the tumor volume reaches a size of ˜2500 mm^3 or greater. Mice were humanly sacrificed after the experiment.
(§2) The efficacy of compounds in reducing tumor growth was assessed by the index Tumor Growth Inhibition (TGI). TGI for a given treatment period was calculated using the group mean tumor volumes according to the formula: TGI=100×(VVehicle—group−VTreatment—group)÷VVehicle—group wherein VVehicle—group represents the mean tumor volume for the group treated with vehicle and VTreatment—group represents the mean tumor volume of the group treated with a compound.

[2] = test system: BEL-7404 human hepatocellular carcinoma; test: In vivo anti-tumor efficacy, BEL-7404 xenograft; settings: Liver cancer BEL-7404, nu/nu Balb/c mice, 50 mg/kg oral once per day, n = 2 × 3
Experimental: Female (nu/nu) Balb/c athymic mice at 4-6 weeks of age were injected subcutaneously (s.c.) with MDA-MB-231 human breast cancer cells, A549 human non-small cell lung cancer cells, U87-MG human glioblastoma cells, PC-3 human prostate cancer cells, HT-29 human colon cancer, BEL-7404 human hepatocellular carcinoma, or MKN-45 human gastric cancer cells (ATCC, 5×10^6 cells suspended in 100 μl DMEM medium). Treatment was initiated after the tumor mass grown from s.c. implanted tumor cells reached a median volume of 200-400 mm^3. Mice were randomized into groups with three in each group for small-sample efficacy tests such that the median tumor volume is nearly equal among all groups. […] Tumor volumes were assessed at least twice weekly by caliper measurement from the start of treatment. Tumor volume was calculated using the formula ½×L×W^2 (L: length of tumor's long axis, W: length of tumor's short axis). […]
as §2

c-Kit = target: T3, c-Kit (Homo sapiens, UniProt P10721); test: KINOMEscan competition binding assay, c-Kit; settings: compound at 100 nM; lower number indicates stronger hit
T3 construct: purchased KINOMEscan service (Ambit Biosciences, San Diego)
T3 sequence (P10721 26-976): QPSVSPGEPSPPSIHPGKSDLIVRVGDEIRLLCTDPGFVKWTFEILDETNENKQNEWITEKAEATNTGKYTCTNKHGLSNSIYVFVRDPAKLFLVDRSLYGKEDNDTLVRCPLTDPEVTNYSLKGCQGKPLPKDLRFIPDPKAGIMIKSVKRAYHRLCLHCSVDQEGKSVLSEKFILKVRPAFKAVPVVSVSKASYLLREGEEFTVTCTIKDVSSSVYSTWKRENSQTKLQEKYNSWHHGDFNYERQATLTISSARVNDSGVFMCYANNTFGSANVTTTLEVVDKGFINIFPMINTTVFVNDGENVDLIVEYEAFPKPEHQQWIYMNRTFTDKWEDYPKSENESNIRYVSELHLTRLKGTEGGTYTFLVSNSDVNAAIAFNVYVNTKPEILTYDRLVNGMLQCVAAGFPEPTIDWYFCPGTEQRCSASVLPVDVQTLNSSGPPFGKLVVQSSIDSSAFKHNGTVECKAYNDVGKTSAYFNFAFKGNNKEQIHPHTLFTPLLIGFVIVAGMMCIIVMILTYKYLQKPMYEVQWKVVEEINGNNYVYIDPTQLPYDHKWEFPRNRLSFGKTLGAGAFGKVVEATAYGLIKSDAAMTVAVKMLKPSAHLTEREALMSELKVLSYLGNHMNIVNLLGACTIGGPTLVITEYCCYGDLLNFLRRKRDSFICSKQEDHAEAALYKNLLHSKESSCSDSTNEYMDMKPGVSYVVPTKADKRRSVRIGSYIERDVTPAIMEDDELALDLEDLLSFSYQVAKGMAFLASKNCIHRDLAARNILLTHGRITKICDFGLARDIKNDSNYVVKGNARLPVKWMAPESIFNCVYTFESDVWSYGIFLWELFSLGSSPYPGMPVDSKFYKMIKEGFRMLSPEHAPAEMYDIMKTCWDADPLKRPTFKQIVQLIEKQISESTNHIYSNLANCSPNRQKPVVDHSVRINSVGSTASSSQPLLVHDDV
Experimental: (§3) A standard competition binding assay can be used to test the ability of a compound of this invention on competing with both intended and unintended kinases in vitro. To screen a compound against a large number of human kinases, a competition binding assay with an active-site dependent binding technology was performed by KINOMEscan service (Ambit Biosciences, San Diego, Cal., USA). Three components were combined in this assay—DNA-tagged kinase, immobilized ligand, and the test compound. The ability of the test compound to compete with the immobilized ligand was measured by quantitative PCR of the DNA of the DNA tag. A number of the compounds of this invention were screened at the concentration of 100 nM by this binding assay, and the results were reported as “% Ctrl,” and the lower number indicates stronger “hit” in this matrix.

CSF-1R = target: T4, CSF-1R (Homo sapiens, UniProt P07333); test: KINOMEscan competition binding assay, CSF-1R; settings: compound at 100 nM; lower number indicates stronger hit
T4 construct: purchased KINOMEscan service (Ambit Biosciences, San Diego)
Experimental: as §3

EPHA2 = target: T5, EPHA2 (Homo sapiens, UniProt P29317); test: KINOMEscan competition binding assay, EPHA2; settings: compound at 100 nM; lower number indicates stronger hit
T5 construct: purchased KINOMEscan service (Ambit Biosciences, San Diego)
Experimental: as §3

[3] = test system: MKN-45 human gastric cancer cells; test: In vivo anti-tumor efficacy, MKN-45 xenograft; settings: Gastric cancer MKN-45, nu/nu Balb/c mice, 100 mg/kg oral once per day, n = 2 × 3
Experimental: as §1, with “experiment. The efficacy of compounds in reducing tumor growth was assessed by the index Tumor Growth Inhibition (TGI). TGI for a given treatment period was calculated using the group mean tumor volumes according to the formula: TGI=100×(VVehicle—group−VTreatment—group)÷VVehicle—group wherein VVehicle—group represents the mean tumor volume for the group treated with vehicle and VTreatment—group represents the mean tumor volume of the group treated with a compound.” for “experiment.”

[4] = test system: A549 human non-small cell lung cancer cells; test: In vivo anti-tumor efficacy, A549 xenograft; settings: Non-small cell lung cancer A549, nu/nu Balb/c mice, n = 2 × 3
Experimental: as §1, with “experiment. The efficacy of compounds in reducing tumor growth was assessed by the index Tumor Growth Inhibition (TGI). TGI for a given treatment period was calculated using the group mean tumor volumes according to the formula: TGI=100×(VVehicle—group−VTreatment—group)÷VVehicle—group wherein VVehicle—group represents the mean tumor volume for the group treated with vehicle and VTreatment—group represents the mean tumor volume of the group treated with a compound.” for “experiment.”

[5] = test system: PC-3 human prostate cancer cells; test: In vivo anti-tumor efficacy, PC-3 xenograft; settings: Prostate cancer PC-3, nu/nu Balb/c mice, n = 2 × 3
Experimental: as §1, with “experiment. The efficacy of compounds in reducing tumor growth was assessed by the index Tumor Growth Inhibition (TGI). TGI for a given treatment period was calculated using the group mean tumor volumes according to the formula: TGI=100×(VVehicle—group−VTreatment—group)÷VVehicle—group wherein VVehicle—group represents the mean tumor volume for the group treated with vehicle and VTreatment—group represents the mean tumor volume of the group treated with a compound.” for “experiment.”

[6] = test system: U87-MG human glioblastoma cells; test: In vivo anti-tumor efficacy, U87-MG xenograft; settings: nu/nu Balb/c mice, 100 mg/kg oral once per day, n = 2 × 3
Experimental: Female (nu/nu) Balb/c athymic mice at 4-6 weeks of age were injected subcutaneously (s.c.) with MDA-MB-231 human breast cancer cells, A549 human non-small cell lung cancer cells, U87-MG human glioblastoma cells, PC-3 human prostate cancer cells, HT-29 human colon cancer, BEL-7404 human hepatocellular carcinoma, or MKN-45 human gastric cancer cells (ATCC, 5×10^6 cells suspended in 100 μl DMEM medium). Treatment was initiated after the tumor mass grown from s.c. implanted tumor cells reached a median volume of 200-400 mm^3. Mice were randomized into groups with three in each group for small-sample efficacy tests such that the median tumor volume is nearly equal among all groups. […] Tumor volumes were assessed at least twice weekly by caliper measurement from the start of treatment. Tumor volume was calculated using the formula ½×L×W^2 (L: length of tumor's long axis, W: length of tumor's short axis). […] The efficacy of compounds in reducing tumor growth was assessed by the index Tumor Growth Inhibition (TGI). TGI for a given treatment period was calculated using the group mean tumor volumes according to the formula: TGI=100×(VVehicle—group−VTreatment—group)÷VVehicle—group wherein VVehicle—group represents the mean tumor volume for the group treated with vehicle and VTreatment—group represents the mean tumor volume of the group treated with a compound.

PDGFRβ = target: T6, PDGFRβ (Homo sapiens, UniProt P09619); test: PDGFRβ cell-based assay (phospho-PDGFRβ ELISA, transfected CHO cells); settings: compound at 100 nM, read-out: % PDGFRβ kinase activity remains
T6 construct: expressed in transfected cells; host or cells: CHO cells, pcDNA3.1 plasmid
T6 sequence (P09619 33-1106, species assumed): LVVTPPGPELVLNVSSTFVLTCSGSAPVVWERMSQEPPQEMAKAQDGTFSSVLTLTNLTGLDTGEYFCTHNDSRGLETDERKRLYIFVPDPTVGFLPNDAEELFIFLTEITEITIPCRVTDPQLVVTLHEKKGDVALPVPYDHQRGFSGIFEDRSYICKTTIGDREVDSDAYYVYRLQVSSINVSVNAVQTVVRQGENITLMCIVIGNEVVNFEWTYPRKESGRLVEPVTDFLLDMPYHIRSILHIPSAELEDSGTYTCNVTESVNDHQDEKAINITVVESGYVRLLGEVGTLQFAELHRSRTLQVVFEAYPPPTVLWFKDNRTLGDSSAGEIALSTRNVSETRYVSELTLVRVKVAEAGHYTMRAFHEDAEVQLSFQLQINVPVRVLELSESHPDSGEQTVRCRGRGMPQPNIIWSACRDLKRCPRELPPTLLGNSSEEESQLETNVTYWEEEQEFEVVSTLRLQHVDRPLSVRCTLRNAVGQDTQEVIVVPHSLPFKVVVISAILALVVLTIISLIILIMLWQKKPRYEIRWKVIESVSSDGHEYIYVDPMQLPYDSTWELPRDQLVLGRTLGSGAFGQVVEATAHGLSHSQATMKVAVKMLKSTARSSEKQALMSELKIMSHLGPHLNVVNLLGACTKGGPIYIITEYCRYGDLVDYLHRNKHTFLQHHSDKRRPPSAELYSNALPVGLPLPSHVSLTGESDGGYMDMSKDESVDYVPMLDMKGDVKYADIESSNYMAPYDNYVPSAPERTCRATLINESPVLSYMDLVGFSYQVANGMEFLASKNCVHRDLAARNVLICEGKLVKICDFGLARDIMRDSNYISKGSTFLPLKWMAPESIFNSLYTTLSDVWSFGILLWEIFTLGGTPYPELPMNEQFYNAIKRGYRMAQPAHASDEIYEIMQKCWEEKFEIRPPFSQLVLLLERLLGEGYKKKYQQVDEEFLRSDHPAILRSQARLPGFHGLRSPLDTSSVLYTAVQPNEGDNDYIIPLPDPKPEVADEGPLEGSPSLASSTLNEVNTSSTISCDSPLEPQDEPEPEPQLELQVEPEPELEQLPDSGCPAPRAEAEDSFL
Experimental: A standard cell-based assay for PDGFRβ kinase activity can be used to test a compound of this invention and to identify PDGFRβ antagonists.
Specifically, a compound to be tested was first dissolved in DMSO to a concentration of 10 mM and stored at −20° C. The activity of PDGFRβ in cells depends on the phosphorylation level of its intracellular domain induced by the ligand. In order to express PDGFRβ in the cell, full length PDGFRβ sequence was cloned into PC-DNA3.1 vector. The plasmid was then transfected into CHO cells. After 48 hours following the transfection, the expression of PDGFRβ in transfected CHO cells was confirmed by regular western blotting.
To screen the compound of this invention, the ELISA kit (R&D Systems, Minneapolis, Minn., USA) was used. One day before the screening, CHO cells transfected with full length PDGFRβ plasmid were grown in DMEM medium without the presence of serum. On the day of screening, various concentrations of compounds (from 0.5 nM to 500 nM) were added into DMEM medium. Two hours later, 20% of FBS (Fetal Bovine Serum) was added into the medium to stimulate the expression of phosphor-PDGFRβ. Cell lysate from approximately 5×10^5 transfected CHO cells were reacted with anti-phosphor-PDGFRβ or anti-total PDGFRβ antibody in 96 well plates, in the presence of detection antibody, the phosphor-PDGFRβ or total PDGFRβ were detected with Streptavidin-HRP (R&D Systems), followed by chemiluminescent detection.

HT-1299 = test: In vivo anti-tumor efficacy, HT-1299 lung cancer xenograft; settings: Lung cancer HT-1299, nu/nu Balb/c mice, 100 mg/kg oral once per day, n = 2 × 3

remaining activity at 0.1 µM (VEGFR2) [%] | c-Kit % Ctrl (c-Kit) [% Ctrl] | CSF-1R % Ctrl (CSF-1R) [% Ctrl] | EPHA2 % Ctrl (EPHA2) [% Ctrl] | remaining activity at 0.1 µM (PDGFRβ) [%] | Structure (SMILES) | % c-Met kinase activity remains (c-Met) | Tumor Growth Inhibition (TGI) [1] | Tumor Growth Inhibition (TGI) [2] | Tumor Growth Inhibition (TGI) [3] | Tumor Growth Inhibition (TGI) ([4]; 50 mg/kg oral once per day) | Tumor Growth Inhibition (TGI) ([5]; 50 mg/kg oral once per day) | Tumor Growth Inhibition (TGI) ([4]; 100 mg/kg oral once per day) | Tumor Growth Inhibition (TGI) ([5]; 100 mg/kg oral once per day) | Tumor Growth Inhibition (TGI) [6] | Tumor Growth Inhibition (TGI) (HT-1299)
< 70 | – | – | – | – | O=C(Nc1cccc(Cl)c1)Nc1cccc2c1ccn2Cc1ccnc2[nH]ccc12 [Example 38, 1-(3-Chlorophenyl)-3-[1-(1H-pyrrolo[2,3-b]pyridin-4-ylmethyl)-1H-indol-4-yl]urea hydrochloride] | A (the percentage of kinase activity remains is below 70%) | A (the TGI is greater or equal to 50%) | A (the TGI is greater or equal to 50%) | – | – | – | – | – | – | –
< 70 | 0.35 | 0.8 | 6 | – | Cc1cccc(NC(=O)Nc2cccc3c2ccn3Cc2ccnc3[nH]ccc23)c1.Cl [Example 44, 1-(3-Methylphenyl)-3-[1-(1H-pyrrolo[2,3-b]pyridin-4-ylmethyl)-1H-indol-4-yl]urea hydrochloride] | A (the percentage of kinase activity remains is below 70%) | A (the TGI is greater or equal to 50%) | – | A (the TGI is greater or equal to 50%) | A (the TGI is greater or equal to 50%) | A (the TGI is greater or equal to 50%) | – | – | – | –
< 70 | – | – | – | – | COc1ccc(Cl)cc1NC(=O)Nc1cccc2c1ccn2Cc1ccnc2[nH]ccc12.Cl [Example 2a/2b, 1-(2-Methoxyl-5-chlorophenyl)-3-[1-(1H-pyrrolo[2,3-b]pyridin-4-ylmethyl)-1H-indol-4-yl]urea hydrochloride] | A (the percentage of kinase activity remains is below 70%) | A (the TGI is greater or equal to 50%) | – | A (the TGI is greater or equal to 50%) | – | – | A (the TGI is greater or equal to 50%) | A (the TGI is greater or equal to 50%) | A (the TGI is greater or equal to 50%) | –
< 70 | – | – | – | ≥ 70 | COc1ccc(Cl)cc1NC(=O)Nc1cccc2c1ccn2Cc1c[nH]c2ncccc12.Cl [Example 3, 1-(2-Methoxyl-5-chlorophenyl)-3-[1-(1H-pyrrolo[2,3-b]pyridin-3-ylmethyl)-1H-indol-4-yl]urea hydrochloride] | A (the percentage of kinase activity remains is below 70%) | A (the TGI is greater or equal to 50%) | – | – | – | – | A (the TGI is greater or equal to 50%) | – | – | A (the TGI is greater or equal to 50%)
